The text below walks through data of ChEMBL document CHEMBL1255463, “Attenuation of colistin bactericidal activity by high inoculum of Pseudomonas aeruginosa characterized by a new mechanism-based population pharmacodynamic model” (Antimicrob Agents Chemother, 2010).

Broadly, the EC50 is the midpoint of the concentration-response curve.

Active and inactive are the calls of the source. The calls are words filed in the database; no cut-off is given here.

Format in all cases: functional, organism-based
The test system of assay [1] is Pseudomonas aeruginosa. Description: Antimicrobial activity against 10^6 CFU/ml Pseudomonas aeruginosa URMC1 after 24 hrs by time-kill assay.
In assay [2] the test system is Pseudomonas aeruginosa. Briefly: Antimicrobial activity against 10^8 CFU/ml Pseudomonas aeruginosa URMC2 after 24 hrs by time-kill assay.
Assay [3] relates to Pseudomonas aeruginosa. Briefly: Antimicrobial activity against 10^8 CFU/ml Pseudomonas aeruginosa URMC1 after 24 hrs by time-kill assay.
The test system of assay [4] is Pseudomonas aeruginosa. Briefly: Antimicrobial activity against 10^6 CFU/ml Pseudomonas aeruginosa URMC2 after 24 hrs by time-kill assay.
The test system of assay [5] is Pseudomonas aeruginosa. Briefly: Antimicrobial activity against 10^9 CFU/ml Pseudomonas aeruginosa PAO1 after 24 hrs by time-kill assay.
Assay [6] concerns Pseudomonas aeruginosa. Briefly: Antimicrobial activity against 10^9 CFU/ml Pseudomonas aeruginosa URMC2 after 24 hrs by time-kill assay.
The test system of assay [7] is Pseudomonas aeruginosa. Description: Antimicrobial activity against 10^9 CFU/ml Pseudomonas aeruginosa URMC1 after 24 hrs by time-kill assay.
Assay [8] has as its system Pseudomonas aeruginosa. Briefly: Antimicrobial activity against 10^6 CFU/ml Pseudomonas aeruginosa PAO1 after 24 hrs by time-kill assay.
In assay [9] the test system is Pseudomonas aeruginosa. Briefly: Antimicrobial activity against 10^8 CFU/ml Pseudomonas aeruginosa PAO1 after 24 hrs by time-kill assay.
Assay [10] deals with Pseudomonas aeruginosa. Briefly: Antimicrobial activity against 10^6 CFU/ml Pseudomonas aeruginosa PAO1 at 2 to 16 mg/L after 24 hrs by time-kill assay.
For assay [11], the system named is Pseudomonas aeruginosa. Briefly: Bactericidal activity against 10^6 CFU/ml Pseudomonas aeruginosa URMC1 at >= 16 times MIC up to 30 mins by time-kill assay.
Assay [12] has as its system Pseudomonas aeruginosa. Description: Antimicrobial activity against 10^9.4 CFU/ml Pseudomonas aeruginosa PAO1 at 16 mg/L after 24 hrs by time-kill assay.
Assay [13] relates to Pseudomonas aeruginosa. Description: Bactericidal activity against 10^6 CFU/ml Pseudomonas aeruginosa PAO1 at 1 to 4 times MIC up to 1 hr by time-kill assay.
Assay [14] concerns Pseudomonas aeruginosa. Description: Antimicrobial activity against 10^9 CFU/ml Pseudomonas aeruginosa PAO1 at 4 to 128 mg/L after 24 hrs by time-kill assay.
Assay [15] deals with Pseudomonas aeruginosa. Description: Bactericidal activity against 10^6 CFU/ml Pseudomonas aeruginosa URMC2 at >= 16 times MIC up to 30 mins by time-kill assay.
In assay [16] the test system is Pseudomonas aeruginosa. Description: Antimicrobial activity against 10^9.4 CFU/ml Pseudomonas aeruginosa PAO1 at 64 mg/L after 0.75 hrs by time-kill assay.
The test system of assay [17] is Pseudomonas aeruginosa. Briefly: Antimicrobial activity against 10^9.4 CFU/ml Pseudomonas aeruginosa PAO1 at 16 mg/L after 0.75 hrs by time-kill assay.
Assay [18] has as its system Pseudomonas aeruginosa. Description: Bactericidal activity against 10^6 CFU/ml Pseudomonas aeruginosa PAO1 at >= 16 times MIC up to 30 mins by time-kill assay.
Assay [19] relates to Pseudomonas aeruginosa. Briefly: Antimicrobial activity against 10^9 CFU/ml Pseudomonas aeruginosa PAO1 after 8 to 12 hrs by time-kill assay.
Assay [20] deals with Pseudomonas aeruginosa. Description: Bactericidal activity against 10^6 CFU/ml Pseudomonas aeruginosa URMC1 at 1 to 4 times MIC up to 1 hr by time-kill assay.
The subject of assay [21] is Pseudomonas aeruginosa. Briefly: Antimicrobial activity against 10^9.4 CFU/ml Pseudomonas aeruginosa PAO1 at 64 mg/L after 24 hrs by time-kill assay.
Assay [22] concerns Pseudomonas aeruginosa. Description: Bactericidal activity against 10^6 CFU/ml Pseudomonas aeruginosa URMC2 at 1 to 4 times MIC up to 1 hr by time-kill assay.
Assay [23] relates to Pseudomonas aeruginosa. Description: Antimicrobial activity against 10^8 CFU/ml Pseudomonas aeruginosa PAO1 at 4 to 32 mg/L after 24 hrs by time-kill assay.
Assay [24] relates to Pseudomonas aeruginosa. Briefly: Antimicrobial activity against Pseudomonas aeruginosa assessed as destabilization of bacterial outer membrane by receptor occupancy assay.

As to COLISTIN [listing 1 of 2 here], the EC50 with Pseudomonas aeruginosa [1] came to 0.736 µg/mL; in the assay on Pseudomonas aeruginosa [2], 2.56 µg/mL; in the assay with Pseudomonas aeruginosa [3], 2.69 µg/mL; in the assay with Pseudomonas aeruginosa [4] it was 1.15 µg/mL; in the assay on Pseudomonas aeruginosa [5], 6.22 µg/mL; in the assay on Pseudomonas aeruginosa [6], 3.5 µg/mL. Also, the EC50 in the assay with Pseudomonas aeruginosa [7] worked out at 4.62 µg/mL; in the assay with Pseudomonas aeruginosa [8] it was 0.777 µg/mL; in the assay on Pseudomonas aeruginosa [9] it was 1.49 µg/mL.

As for COLISTIN [listing 2 of 2 here], the outcome with Pseudomonas aeruginosa [10], with Pseudomonas aeruginosa [14], in the assay with Pseudomonas aeruginosa [19] and with Pseudomonas aeruginosa [23] was inactive. The outcome in the assay with Pseudomonas aeruginosa [11], with Pseudomonas aeruginosa [13], in the assay on Pseudomonas aeruginosa [15], in the assay with Pseudomonas aeruginosa [18], in the assay with Pseudomonas aeruginosa [20] and with Pseudomonas aeruginosa [22] was Active. In addition, the Activity result in the assay with Pseudomonas aeruginosa [1] was “Dose-dependent effect”; with Pseudomonas aeruginosa [4], “Dose-dependent effect”; in the assay with Pseudomonas aeruginosa [8] it was “Dose-dependent effect”; in the assay on Pseudomonas aeruginosa [24] it was 53.7%. In addition, the log10CFU/ml in the assay with Pseudomonas aeruginosa [12] was 5; in the assay with Pseudomonas aeruginosa [16], greater than 5; with Pseudomonas aeruginosa [17] it was greater than 5; in the assay with Pseudomonas aeruginosa [21], greater than 5.
